This is an account of results in ChEMBL document CHEMBL2157977, “The antitumor agent doxorubicin binds to Fanconi anemia group F protein” (Bioorg Med Chem, 2012).

Activity calls are given as the source filed them. No cut-off for these calls is given here.

Experiment [1] concerns the target Fanconi anemia group D2 protein (Homo sapiens) (UniProt Q9BXW9). The experiment is described as follows: Inhibition of CDDP-induced FANCD2 monoubiquitination in human HeLa cells at 9 uM after 18 hrs by Western blot analysis. It counts as cell-based.
The target in experiment [2] is T1, Fanconi anemia group F protein (Homo sapiens) (UniProt Q9NPI8).
T1 sequence (whole entry): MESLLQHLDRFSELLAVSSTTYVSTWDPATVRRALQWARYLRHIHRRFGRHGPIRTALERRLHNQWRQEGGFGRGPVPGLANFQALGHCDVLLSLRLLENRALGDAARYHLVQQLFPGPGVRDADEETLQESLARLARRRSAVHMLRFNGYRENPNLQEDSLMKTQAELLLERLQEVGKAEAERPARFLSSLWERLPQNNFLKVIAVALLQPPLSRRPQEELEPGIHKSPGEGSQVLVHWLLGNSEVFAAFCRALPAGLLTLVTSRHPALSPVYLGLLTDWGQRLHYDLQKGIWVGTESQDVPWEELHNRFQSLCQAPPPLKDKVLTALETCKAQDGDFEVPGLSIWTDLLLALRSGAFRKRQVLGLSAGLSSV
The experiment in a line: Binding affinity to human thymus flag-tagged full-length FANCF expressed in HEK293T cells after 10 mins by pull-down assay. It counts as cell-based. Particulars: HEK-293T.

Sequence of Fanconi anemia group D2 protein (Homo sapiens) (Q9BXW9 whole entry): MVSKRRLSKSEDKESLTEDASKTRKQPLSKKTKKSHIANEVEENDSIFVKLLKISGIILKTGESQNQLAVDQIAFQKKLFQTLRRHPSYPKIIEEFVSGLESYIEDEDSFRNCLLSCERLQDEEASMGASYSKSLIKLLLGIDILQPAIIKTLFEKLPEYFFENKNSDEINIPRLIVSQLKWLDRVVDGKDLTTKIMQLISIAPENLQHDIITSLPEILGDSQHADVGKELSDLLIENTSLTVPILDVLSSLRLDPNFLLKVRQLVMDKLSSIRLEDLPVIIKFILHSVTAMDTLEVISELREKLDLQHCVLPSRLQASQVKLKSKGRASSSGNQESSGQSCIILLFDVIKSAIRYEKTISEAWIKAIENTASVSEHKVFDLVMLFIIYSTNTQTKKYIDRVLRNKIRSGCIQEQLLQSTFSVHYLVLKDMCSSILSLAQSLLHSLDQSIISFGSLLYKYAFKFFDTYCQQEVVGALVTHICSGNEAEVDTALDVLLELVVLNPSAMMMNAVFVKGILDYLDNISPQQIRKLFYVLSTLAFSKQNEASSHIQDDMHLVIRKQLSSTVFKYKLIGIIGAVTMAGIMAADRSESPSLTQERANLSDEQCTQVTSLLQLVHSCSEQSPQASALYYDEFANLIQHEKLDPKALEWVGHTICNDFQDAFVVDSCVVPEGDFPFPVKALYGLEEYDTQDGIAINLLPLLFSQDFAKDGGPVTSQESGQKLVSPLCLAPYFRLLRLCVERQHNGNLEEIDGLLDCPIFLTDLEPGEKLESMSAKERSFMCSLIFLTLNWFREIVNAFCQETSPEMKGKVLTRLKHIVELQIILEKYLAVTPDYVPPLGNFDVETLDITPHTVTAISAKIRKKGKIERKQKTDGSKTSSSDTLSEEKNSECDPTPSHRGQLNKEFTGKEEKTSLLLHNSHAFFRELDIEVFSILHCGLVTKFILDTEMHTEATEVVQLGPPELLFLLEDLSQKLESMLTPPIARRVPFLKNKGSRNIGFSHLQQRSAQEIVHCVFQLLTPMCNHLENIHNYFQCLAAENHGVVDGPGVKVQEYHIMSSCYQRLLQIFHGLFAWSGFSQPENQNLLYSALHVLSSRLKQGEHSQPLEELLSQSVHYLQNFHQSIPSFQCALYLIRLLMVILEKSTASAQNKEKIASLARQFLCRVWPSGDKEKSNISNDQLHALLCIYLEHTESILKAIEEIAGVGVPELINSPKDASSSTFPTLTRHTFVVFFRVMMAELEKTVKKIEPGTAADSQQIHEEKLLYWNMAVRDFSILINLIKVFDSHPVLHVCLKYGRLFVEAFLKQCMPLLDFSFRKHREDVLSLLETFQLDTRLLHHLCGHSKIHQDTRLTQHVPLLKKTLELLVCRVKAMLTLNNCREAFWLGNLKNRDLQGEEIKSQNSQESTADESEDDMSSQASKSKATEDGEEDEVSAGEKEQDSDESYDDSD

`COc1cccc2c1C(=O)c1c(O)c3c(c(O)c1C2=O)C[C@@](O)(C(=O)CO)C[C@@H]3O[C@H]1C[C@H](N)[C@H](O)[C@H](C)O1`: the inhibition result in experiment [1] was “Active”. Consider `COc1cccc2c1C(=O)c1c(O)c3c(c(O)c1C2=O)C[C@@](O)(C(=O)CO)C[C@@H]3O[C@H]1C[C@H](NC(=O)CCCCCNC(=O)CCCC[C@@H]2SC[C@@H]3NC(=O)N[C@@H]32)[C@H](O)[C@H](C)O1`, for which the result in experiment [2] was Active.
